Test results taken from ChEMBL document CHEMBL6127009, “Discovery of L15 as a novel Vif PROTAC degrader with antiviral activity against HIV-1” (Bioorg Med Chem Lett, 2024).
Active and inactive are the calls of the source. No cut-off for these calls is given here.

Legend:
[1] = target: T1, Protein cereblon/Virion infectivity factor (Human immunodeficiency virus type 1 group M subtype B (isolate NY5)(HIV-1)) (UniProt Q96SW2+P12504); assay: PROTAC activity at CRBN (unknown origin)/Vif in HIV-1 TREX-hvif-15 cells assessed as reduction in Vif protein level at 50 uM by Western blotting analysis; type: cell-based; conditions: TREX-hvif-15 cell
T1 sequence (P12504 whole entry, looked up): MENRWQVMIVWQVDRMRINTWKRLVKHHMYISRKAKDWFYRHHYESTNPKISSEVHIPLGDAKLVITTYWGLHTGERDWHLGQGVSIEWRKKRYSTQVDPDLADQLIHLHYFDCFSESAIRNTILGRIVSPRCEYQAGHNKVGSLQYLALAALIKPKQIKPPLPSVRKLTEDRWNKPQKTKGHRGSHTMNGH
T1 sequence (Q96SW2 whole entry, looked up): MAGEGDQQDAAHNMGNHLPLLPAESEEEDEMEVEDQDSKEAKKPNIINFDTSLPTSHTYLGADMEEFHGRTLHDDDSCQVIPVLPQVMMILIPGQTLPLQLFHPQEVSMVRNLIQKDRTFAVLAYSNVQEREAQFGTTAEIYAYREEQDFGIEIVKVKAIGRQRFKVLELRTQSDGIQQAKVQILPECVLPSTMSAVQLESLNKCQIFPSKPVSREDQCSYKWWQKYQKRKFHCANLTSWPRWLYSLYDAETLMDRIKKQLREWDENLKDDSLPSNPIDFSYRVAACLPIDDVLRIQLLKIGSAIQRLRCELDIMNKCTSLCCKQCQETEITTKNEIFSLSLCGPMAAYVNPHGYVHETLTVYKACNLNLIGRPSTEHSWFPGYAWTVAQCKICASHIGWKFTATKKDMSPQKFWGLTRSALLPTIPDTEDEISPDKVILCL

[2] = tested on: Human immunodeficiency virus 1; assay: Antiviral activity against HIV1 at 50 uM measured after 8 hrs; type: functional, organism-based
[3] = tested on: Human immunodeficiency virus 1; assay: Antiviral activity against HIV-1 4755-5 infected in C8166 cells; type: functional, organism-based; conditions: Human immunodeficiency virus 1, 4755-5, C8166
[4] = tested on: Human immunodeficiency virus 1; assay: Antiviral activity against HIV-1 IIIB infected in TZM-bl cells; type: functional, organism-based; conditions: Human immunodeficiency virus 1, IIIB
[5] = tested on: Human immunodeficiency virus 1; assay: Antiviral activity against HIV-1 IIIB infected in C8166 cells; type: functional, organism-based; conditions: Human immunodeficiency virus 1, IIIB
[6] = Cytotoxicity against human PBMCs; type: toxicity, cell-based, PBMC
[7] = tested on: Human immunodeficiency virus 1; assay: Antiviral activity against HIV-1 9498 infected in C8166 cells; type: functional, organism-based; conditions: Human immunodeficiency virus 1, 9498, C8166
[8] = tested on: Human immunodeficiency virus 1; assay: Antiviral activity against HIV-1 G140S/Q148H infected in C8166 cells; type: functional, organism-based; conditions: Human immunodeficiency virus 1, G140S/Q148H
[9] = tested on: Human immunodeficiency virus 1; assay: Antiviral activity against HIV-1 2802 infected in C8166 cells; type: functional, organism-based; conditions: Human immunodeficiency virus 1, 2802, C8166
[10] = target: T1, Protein cereblon/Virion infectivity factor (Human immunodeficiency virus type 1 group M subtype B (isolate NY5)(HIV-1)); assay: PROTAC activity at CRBN (unknown origin)/Vif in HIV-1 TREX-hvif-15 cells assessed as reduction in Vif protein level incubated for 24 hrs by Western blotting analysis; type: cell-based; conditions: TREX-hvif-15 cell, dose 3.125-50 µM
[11] = tested on: Human immunodeficiency virus 1; assay: Antiviral activity against HIV-1 WAN infected in PHA-P stimulated PBMCs; type: functional, organism-based; conditions: Human immunodeficiency virus 1, WAN, PBMC
[12] = Therapeutic index, ratio of CC50 for human TZM-bl cells to EC50 for HIV IIIB infected in TZM-bl cells; type: toxicity, cell-based; conditions: read-out: Ratio CC50/EC50
[13] = tested on: Human immunodeficiency virus 1; assay: Antiviral activity against HIV-1 KIZ002 infected in PHA-P stimulated PBMCs; type: functional, organism-based; conditions: Human immunodeficiency virus 1, KIZ002, PBMC
[14] = tested on: Human immunodeficiency virus 1; assay: Antiviral activity against HIV-1 A17 infected in C8166 cells; type: functional, organism-based; conditions: Human immunodeficiency virus 1, A17, C8166
[15] = target: T1, Protein cereblon/Virion infectivity factor (Human immunodeficiency virus type 1 group M subtype B (isolate NY5)(HIV-1)); assay: PROTAC activity at CRBN (unknown origin)/Vif in HIV-1 TREX-hvif-15 cells assessed as reduction in Vif protein level at 50 uM pretreated with MG132 followed by compound addition and measured after 24 hrs by Western blotting analysis; type: cell-based; conditions: TREX-hvif-15 cell
[16] = Cytotoxicity against human TZM-bl cells; type: toxicity, cell-based
[17] = target: T1, Protein cereblon/Virion infectivity factor (Human immunodeficiency virus type 1 group M subtype B (isolate NY5)(HIV-1)); assay: PROTAC activity at CRBN (unknown origin)/Vif in HIV-1 TREX-hvif-15 cells assessed as reduction in Vif protein level at 100 uM incubated for 24 hrs by Western blotting analysis; type: cell-based; set-up: scale not given: the % may be the effect or the level left; conditions: TREX-hvif-15 cell

COc1ccc(OCC(=O)NCCOCCOCCNc2cccc3c2C(=O)N(C2CCC(=O)NC2=O)C3=O)cc1NC(=O)c1c(N)cccc1Sc1ccc([N+](=O)[O-])cc1 (configuration not stated)
Activity [1]: Active | Activity [2]: Active | EC50 [3]: 13.6 µM | EC50 [4]: 33.4 µM | EC50 [5]: 10.5 µM | CC50 [6]: > 200 µM | EC50 [7]: 9.65 µM | EC50 [8]: 8.43 µM | EC50 [9]: 7.3 µM | Activity [10]: Dose-Dependent Effect | EC50 [11]: 8.76 µM | selectivity ratio [12]: > 6 | EC50 [13]: 10.5 µM | EC50 [14]: > 100 µM | Activity [15]: inactive | CC50 [16]: > 200 µM | Activity [17]: 100%
